According to ChEMBL document CHEMBL1201862, “PubChem BioAssay data set” (2004):
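Compound exposure: 48 hours, 5 concentrations, 96-well plates. GI50 is the concentration that inhibits growth by half.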 Active and inactive are the calls of the source. Cut-off read from the data, not from the text of the source: active = GI50 up to about 1.1 µM and inactive = higher.

How the values were obtained:
Experiment in all cases: NCI-60 cell line screen, 48 h
786-0 = system: 786-0
A498 = system: A498
ACHN = system: ACHN
CCRF-CEM = system: CCRF-CEM
MOLT-4 = system: MOLT-4
OVCAR-4 = system: OVCAR-4
OVCAR-5 = system: OVCAR-5
RPMI-8226 = system: RPMI-8226
RXF 393 = system: RXF 393
SK-MEL-28 = system: SK-MEL-28
SK-MEL-2 = system: SK-MEL-2
SNB-75 = system: SNB-75
TK-10 = system: TK-10
U-251 = system: U-251
UACC-62 = system: UACC-62
UO-31 = system: UO-31
OVCAR-3 = system: OVCAR-3
LOX IMVI = system: LOX IMVI

| SMILES | GI50 (786-0) | GI50 (A498) | GI50 (ACHN) | GI50 (CCRF-CEM) | GI50 (MOLT-4) | GI50 (OVCAR-4) | GI50 (OVCAR-5) | GI50 (RPMI-8226) | GI50 (RXF 393) | GI50 (SK-MEL-28) | GI50 (SK-MEL-2) | GI50 (SNB-75) | GI50 (TK-10) | GI50 (U-251) | GI50 (UACC-62) | GI50 (UO-31) | GI50 (OVCAR-3) | GI50 (LOX IMVI) |
| --- | --- | --- | --- | --- | --- | --- | --- | --- | --- | --- | --- | --- | --- | --- | --- | --- | --- | --- |
| S=c1nc(N2CCCCC2)ss1 | 20.9 µM (inactive) | 20.2 µM (inactive) | 27 µM (inactive) | 11.7 µM (inactive) | 12.4 µM (inactive) | 38.2 µM (inactive) | > 100 µM (inactive) | 2.75 µM (inactive) | 16.7 µM (inactive) | 18.4 µM (inactive) | 20 µM (inactive) | 24.4 µM (inactive) | 40.6 µM (inactive) | 18.2 µM (inactive) | 17.5 µM (inactive) | 17.7 µM (inactive) | – | – |
| CCCCCCCC(=O)OCC1OC(n2cc(F)c(=O)[nH]c2=O)C(N)C(O)C1O (centres undefined) | > 100 µM (inactive) | > 100 µM (inactive) | > 100 µM (inactive) | > 100 µM (inactive) | > 100 µM (inactive) | > 100 µM (inactive) | > 100 µM (inactive) | > 100 µM (inactive) | > 100 µM (inactive) | > 100 µM (inactive) | > 100 µM (inactive) | > 100 µM (inactive) | – | > 100 µM (inactive) | > 100 µM (inactive) | > 100 µM (inactive) | > 100 µM (inactive) | – |
| CC(=O)NC1C(OCc2ccccc2)OC(COC(=O)CCCCCCCCCCNc2ccc([N+](=O)[O-])c3[nH]c4ccccc4c(=O)c23)C(O)C1OC(C)C(=O)NC(C)C(=O)NC(CCC(N)=O)C(=O)OCc1ccccc1 (centres undefined) | > 100 µM (inactive) | > 100 µM (inactive) | > 100 µM (inactive) | – | > 100 µM (inactive) | > 100 µM (inactive) | > 100 µM (inactive) | > 100 µM (inactive) | – | > 100 µM (inactive) | > 100 µM (inactive) | > 100 µM (inactive) | > 100 µM (inactive) | > 100 µM (inactive) | > 100 µM (inactive) | > 100 µM (inactive) | > 100 µM (inactive) | > 100 µM (inactive) |
| Cc1c2cc[n+](C)cc2c(C)c2c1[nH]c1ccc(OC(C)(C)C)cc12 | > 100 µM (inactive) | > 100 µM (inactive) | > 100 µM (inactive) | > 100 µM (inactive) | > 100 µM (inactive) | > 100 µM (inactive) | > 100 µM (inactive) | > 100 µM (inactive) | > 100 µM (inactive) | > 100 µM (inactive) | > 100 µM (inactive) | > 100 µM (inactive) | > 100 µM (inactive) | > 100 µM (inactive) | > 100 µM (inactive) | > 100 µM (inactive) | – | > 100 µM (inactive) |
| O=C1CCCC[C@H]1[C@H]1CCC[C@@H]([C@H]2CCCCC2=O)C1=O | > 100 µM (inactive) | > 100 µM (inactive) | > 100 µM (inactive) | > 100 µM (inactive) | > 100 µM (inactive) | > 100 µM (inactive) | > 100 µM (inactive) | > 100 µM (inactive) | > 100 µM (inactive) | > 100 µM (inactive) | > 100 µM (inactive) | > 100 µM (inactive) | > 100 µM (inactive) | > 100 µM (inactive) | > 100 µM (inactive) | > 100 µM (inactive) | > 100 µM (inactive) | > 100 µM (inactive) |
| COc1cc(C(=C2SCCS2)c2nccc3cc(OC)c(OC)cc23)c([N+](=O)[O-])cc1OC | 59.3 µM (inactive) | > 100 µM (inactive) | 29.9 µM (inactive) | 34.1 µM (inactive) | 21.6 µM (inactive) | – | > 100 µM (inactive) | 20.8 µM (inactive) | > 100 µM (inactive) | > 100 µM (inactive) | > 100 µM (inactive) | 45.1 µM (inactive) | > 100 µM (inactive) | 64.7 µM (inactive) | 74.3 µM (inactive) | 27.2 µM (inactive) | 40.9 µM (inactive) | 80.9 µM (inactive) |
| N#CC(C#N)=Cc1ccc(Oc2ccccc2)cc1 | 18.2 µM (inactive) | > 100 µM (inactive) | 21.3 µM (inactive) | 23.8 µM (inactive) | 28.6 µM (inactive) | – | > 100 µM (inactive) | 18.1 µM (inactive) | 30.5 µM (inactive) | 15.8 µM (inactive) | 24.3 µM (inactive) | 25.1 µM (inactive) | 55.5 µM (inactive) | 23.4 µM (inactive) | 16.8 µM (inactive) | 25.9 µM (inactive) | 26.4 µM (inactive) | 15.8 µM (inactive) |
| Cc1ccc(S(=O)(=O)CNC(=S)CCCC(=S)NCS(=O)(=O)c2ccc(C)cc2)cc1 | > 100 µM (inactive) | > 100 µM (inactive) | – | 21.3 µM (inactive) | 22.2 µM (inactive) | > 100 µM (inactive) | > 100 µM (inactive) | 21.4 µM (inactive) | 79.4 µM (inactive) | – | – | > 100 µM (inactive) | > 100 µM (inactive) | 59 µM (inactive) | 44.3 µM (inactive) | 35.2 µM (inactive) | 48.9 µM (inactive) | 18.6 µM (inactive) |
| CCN1c2ccccc2-c2c3c1cc(C)cc3c1ccccc1[n+]2CC | 1.59 µM (inactive) | 3.26 µM (inactive) | 2.16 µM (inactive) | 0.621 µM (active) | 1.04 µM (active) | 1.57 µM (inactive) | 1.5 µM (inactive) | 0.466 µM (active) | 2.96 µM (inactive) | 1.19 µM (inactive) | 1.21 µM (inactive) | 0.798 µM (active) | 2.56 µM (inactive) | 0.571 µM (active) | 0.743 µM (active) | 7.13 µM (inactive) | 0.476 µM (active) | 0.386 µM (active) |
| COc1cccc2c1C(=O)c1c(O)c3c(c(O)c1C2=O)CC(O)(C(C)=O)CC3OC1CC([N+](C)(C)C)C(O)C(C)O1 (centres undefined) | > 100 µM (inactive) | > 100 µM (inactive) | > 100 µM (inactive) | 48.1 µM (inactive) | 12.4 µM (inactive) | > 100 µM (inactive) | > 100 µM (inactive) | 22.5 µM (inactive) | > 100 µM (inactive) | > 100 µM (inactive) | > 100 µM (inactive) | 52.2 µM (inactive) | > 100 µM (inactive) | 55.1 µM (inactive) | > 100 µM (inactive) | > 100 µM (inactive) | > 100 µM (inactive) | 51.9 µM (inactive) |
| CCCN(CCCCC(NC(C)=O)C(=O)NCc1ccccc1)C(=O)N(C)N=O (centres undefined) | > 100 µM (inactive) | > 100 µM (inactive) | > 100 µM (inactive) | > 100 µM (inactive) | 92 µM (inactive) | > 100 µM (inactive) | > 100 µM (inactive) | > 100 µM (inactive) | > 100 µM (inactive) | > 100 µM (inactive) | > 100 µM (inactive) | 38.1 µM (inactive) | > 100 µM (inactive) | > 100 µM (inactive) | > 100 µM (inactive) | > 100 µM (inactive) | > 100 µM (inactive) | > 100 µM (inactive) |
| C/C(=N\NC(N)=S)C(CN(CC(C)C)CC(C)C)C(=O)Nc1ccc(C)cc1C (centres undefined) | > 100 µM (inactive) | > 100 µM (inactive) | > 100 µM (inactive) | > 100 µM (inactive) | > 100 µM (inactive) | > 100 µM (inactive) | > 100 µM (inactive) | – | > 100 µM (inactive) | > 100 µM (inactive) | > 100 µM (inactive) | 90.6 µM (inactive) | > 100 µM (inactive) | > 100 µM (inactive) | > 100 µM (inactive) | > 100 µM (inactive) | > 100 µM (inactive) | > 100 µM (inactive) |
| CN(C)CC1(C)CC/C(=C\c2ccccc2)C1=O (centres undefined) | > 100 µM (inactive) | > 100 µM (inactive) | > 100 µM (inactive) | 43.1 µM (inactive) | > 100 µM (inactive) | > 100 µM (inactive) | > 100 µM (inactive) | 27.5 µM (inactive) | > 100 µM (inactive) | > 100 µM (inactive) | > 100 µM (inactive) | > 100 µM (inactive) | > 100 µM (inactive) | > 100 µM (inactive) | > 100 µM (inactive) | > 100 µM (inactive) | > 100 µM (inactive) | > 100 µM (inactive) |
| Nc1nc(CCc2n[nH]c(N)n2)n[nH]1 | > 100 µM (inactive) | > 100 µM (inactive) | > 100 µM (inactive) | > 100 µM (inactive) | > 100 µM (inactive) | > 100 µM (inactive) | > 100 µM (inactive) | > 100 µM (inactive) | > 100 µM (inactive) | > 100 µM (inactive) | > 100 µM (inactive) | > 100 µM (inactive) | > 100 µM (inactive) | > 100 µM (inactive) | > 100 µM (inactive) | > 100 µM (inactive) | > 100 µM (inactive) | > 100 µM (inactive) |
| C/C(=N\NC(=O)CC(=O)Nc1ccc(Cl)cc1)c1cc2ccccc2oc1=O | > 100 µM (inactive) | – | > 100 µM (inactive) | > 100 µM (inactive) | > 100 µM (inactive) | – | – | > 100 µM (inactive) | > 100 µM (inactive) | > 100 µM (inactive) | – | 66.1 µM (inactive) | > 100 µM (inactive) | > 100 µM (inactive) | > 100 µM (inactive) | > 100 µM (inactive) | > 100 µM (inactive) | > 100 µM (inactive) |
| CC1=C(C(=O)CC(=O)C(=O)Nc2cccc(Cl)c2C)Sc2ccccc2N1 | > 100 µM (inactive) | – | > 100 µM (inactive) | > 100 µM (inactive) | > 100 µM (inactive) | > 100 µM (inactive) | > 100 µM (inactive) | > 100 µM (inactive) | > 100 µM (inactive) | > 100 µM (inactive) | > 100 µM (inactive) | – | > 100 µM (inactive) | > 100 µM (inactive) | > 100 µM (inactive) | > 100 µM (inactive) | > 100 µM (inactive) | > 100 µM (inactive) |
